Assay results: ChEMBL document CHEMBL1157050, “Synthesis and cytotoxic evaluation of N2-benzylated quaternary beta-carboline amino acid ester conjugates” (Eur J Med Chem, 2010)

Assays:
Format in all cases: functional, cell-based
A-375 = test: Cytotoxicity against human A375 cells by MTT assay
786-0 = test: Cytotoxicity against human 786-0 cells by MTT assay
[1] = Cytotoxicity against human BGC cells by MTT assay
KB = test: Cytotoxicity against human KB cells by MTT assay
769-P = test: Cytotoxicity against human 769-P cells by MTT assay

## COC(=O)[C@H](C)NC(=O)c1cc2c3ccccc3n(CCCc3ccccc3)c2cn1
A-375
  IC50: > 200 µM
786-0
  IC50: > 200 µM
[1]
  IC50: 148 µM
KB
  IC50: > 200 µM
769-P
  IC50: > 200 µM

## CC(=O)O[C@H]1C(=O)[C@@]2(C)[C@H]([C@H](OC(=O)c3ccccc3)[C@]3(O)C[C@H](OC(=O)[C@H](O)[C@@H](NC(=O)c4ccccc4)c4ccccc4)C(C)=C1C3(C)C)[C@]1(OC(C)=O)CO[C@@H]1C[C@@H]2O [PACLITAXEL]
A-375
  IC50: 0.81 µM
786-0
  IC50: < 0.08 µM
[1]
  IC50: 1.5 µM
KB
  IC50: 0.08 µM
769-P
  IC50: 7.1 µM

## CCCCn1c2ccccc2c2cc(C(=O)N[C@@H](C)C(=O)OC)ncc21
A-375
  IC50: > 200 µM
786-0
  IC50: > 200 µM
[1]
  IC50: > 200 µM
KB
  IC50: > 200 µM
769-P
  IC50: 27.2 µM

## CC(C)[C@H](NC(=O)c1cc2c3ccccc3n(CCCc3ccccc3)c2cn1)C(=O)O
A-375
  IC50: 58 µM
786-0
  IC50: 84.6 µM
[1]
  IC50: 139 µM
KB
  IC50: 106 µM
769-P
  IC50: 78.3 µM

## CCCCn1c2ccccc2c2cc(C(=O)N[C@@H](CCSC)C(=O)O)ncc21
A-375
  IC50: > 200 µM
786-0
  IC50: > 200 µM
[1]
  IC50: > 200 µM
KB
  IC50: > 200 µM
769-P
  IC50: 105 µM

## O=C(N[C@@H](Cc1ccccc1)C(=O)O)c1cc2c3ccccc3n(CCCc3ccccc3)c2cn1
A-375
  IC50: 33.8 µM
786-0
  IC50: 52.7 µM
[1]
  IC50: 76.1 µM
KB
  IC50: 38.8 µM
769-P
  IC50: 8 µM

## CCCCn1c2ccccc2c2cc(C(=O)N[C@@H](Cc3ccccc3)C(=O)O)ncc21
A-375
  IC50: 160 µM
786-0
  IC50: 191 µM
[1]
  IC50: > 200 µM
KB
  IC50: 155 µM
769-P
  IC50: 114 µM

## CCCCn1c2ccccc2c2cc(C(=O)N[C@@H](Cc3ccccc3)C(=O)OC)ncc21
A-375
  IC50: > 200 µM
786-0
  IC50: > 200 µM
[1]
  IC50: > 200 µM
KB
  IC50: > 200 µM
769-P
  IC50: > 200 µM

## CCCCn1c2ccccc2c2cc(C(=O)N[C@@H](Cc3ccc(O)cc3)C(=O)OC)ncc21
A-375
  IC50: > 200 µM
786-0
  IC50: > 200 µM
[1]
  IC50: > 200 µM
KB
  IC50: > 200 µM
769-P
  IC50: > 200 µM

## CCCCn1c2ccccc2c2cc(C(=O)N[C@H](C(=O)OCC)C(C)C)[n+](Cc3ccccc3)cc21
A-375
  IC50: 22.5 µM
786-0
  IC50: 14.4 µM
[1]
  IC50: 44.2 µM
KB
  IC50: 28.4 µM
769-P
  IC50: 13.7 µM

## CCOC(=O)[C@H](Cc1ccccc1)NC(=O)c1cc2c3ccccc3n(Cc3ccccc3)c2cn1
A-375
  IC50: > 200 µM
786-0
  IC50: > 200 µM
[1]
  IC50: > 200 µM
KB
  IC50: > 200 µM
769-P
  IC50: > 200 µM

## CCOC(=O)[C@@H](NC(=O)c1cc2c3ccccc3n(Cc3ccccc3)c2c[n+]1Cc1ccccc1)C(C)C
A-375
  IC50: 15.8 µM
786-0
  IC50: 10.8 µM
[1]
  IC50: 21.9 µM
KB
  IC50: 25.3 µM
769-P
  IC50: 12.5 µM

## CCOC(=O)[C@H](CCSC)NC(=O)c1cc2c3ccccc3n(CCCc3ccccc3)c2cn1
A-375
  IC50: > 200 µM
786-0
  IC50: > 200 µM
[1]
  IC50: > 200 µM
KB
  IC50: 176 µM
769-P
  IC50: > 200 µM

## CCOC(=O)[C@H](CCSC)NC(=O)c1cc2c3ccccc3n(Cc3ccccc3)c2cn1
A-375
  IC50: > 200 µM
786-0
  IC50: > 200 µM
[1]
  IC50: > 200 µM
KB
  IC50: > 200 µM
769-P
  IC50: > 200 µM

## CCOC(=O)[C@H](CCSC)NC(=O)c1cc2c3ccccc3n(CCCc3ccccc3)c2c[n+]1Cc1ccccc1
A-375
  IC50: 7.3 µM
786-0
  IC50: 10.1 µM
[1]
  IC50: 12 µM
KB
  IC50: 9.4 µM
769-P
  IC50: 7.6 µM

## CCOC(=O)[C@H](Cc1ccccc1)NC(=O)c1cc2c3ccccc3n(Cc3ccccc3)c2c[n+]1Cc1ccccc1
A-375
  IC50: 25.8 µM
786-0
  IC50: 69.4 µM
[1]
  IC50: 92.5 µM
KB
  IC50: 51.4 µM
769-P
  IC50: 13.5 µM

## CCCCn1c2ccccc2c2cc(C(=O)N[C@@H](Cc3ccccc3)C(=O)OCC)ncc21
A-375
  IC50: > 200 µM
786-0
  IC50: > 200 µM
[1]
  IC50: > 200 µM
KB
  IC50: 113 µM
769-P
  IC50: 32.5 µM

## CCCCn1c2ccccc2c2cc(C(=O)N[C@@H](CCSC)C(=O)OCC)nc(C)c21
A-375
  IC50: > 200 µM
786-0
  IC50: > 200 µM
[1]
  IC50: > 200 µM
KB
  IC50: > 200 µM
769-P
  IC50: > 200 µM

## CCOC(=O)[C@@H](NC(=O)c1cc2c3ccccc3n(CCCc3ccccc3)c2c[n+]1Cc1ccccc1)C(C)C
A-375
  IC50: 10.4 µM
786-0
  IC50: 4 µM
[1]
  IC50: 17.8 µM
KB
  IC50: 12.5 µM
769-P
  IC50: 14 µM

## CCCCn1c2ccccc2c2cc(C(=O)N[C@@H](Cc3ccc(O)cc3)C(=O)O)ncc21
A-375
  IC50: 121 µM
786-0
  IC50: > 200 µM
[1]
  IC50: > 200 µM
KB
  IC50: > 200 µM
769-P
  IC50: > 200 µM

## CSCC[C@H](NC(=O)c1cc2c3ccccc3n(Cc3ccccc3)c2cn1)C(=O)O
A-375
  IC50: 156 µM
786-0
  IC50: > 200 µM
[1]
  IC50: > 200 µM
KB
  IC50: 135 µM
769-P
  IC50: 145 µM

## CCCCn1c2ccccc2c2cc(C(=O)N[C@@H](CCSC)C(=O)OCC)[n+](Cc3ccccc3)cc21
A-375
  IC50: 8.2 µM
786-0
  IC50: 1.7 µM
[1]
  IC50: 13.4 µM
KB
  IC50: 10.8 µM
769-P
  IC50: 7.5 µM

## CCCCn1c2ccccc2c2cc(C(=O)N[C@@H](Cc3ccccc3)C(=O)OCC)[n+](Cc3ccccc3)cc21
A-375
  IC50: 41.7 µM
786-0
  IC50: 15 µM
[1]
  IC50: 21.4 µM
KB
  IC50: 11.3 µM
769-P
  IC50: 19.2 µM

## CCCCn1c2ccccc2c2cc(C(=O)N[C@H](C(=O)OC)C(C)C)ncc21
A-375
  IC50: > 200 µM
786-0
  IC50: > 200 µM
[1]
  IC50: > 200 µM
KB
  IC50: > 200 µM
769-P
  IC50: > 200 µM

## CCOC(=O)[C@@H](NC(=O)c1cc2c3ccccc3n(CCCc3ccccc3)c2cn1)C(C)C
A-375
  IC50: > 200 µM
786-0
  IC50: > 200 µM
[1]
  IC50: > 200 µM
KB
  IC50: > 200 µM
769-P
  IC50: > 200 µM

## CCCCn1c2ccccc2c2cc(C(=O)N[C@@H](Cc3ccccc3)C(=O)OCC)nc(C)c21
A-375
  IC50: > 200 µM
786-0
  IC50: > 200 µM
[1]
  IC50: > 200 µM
KB
  IC50: > 200 µM
769-P
  IC50: > 200 µM

## CSCC[C@H](NC(=O)c1cc2c3ccccc3n(CCCc3ccccc3)c2cn1)C(=O)O
A-375
  IC50: 58.9 µM
786-0
  IC50: 70 µM
[1]
  IC50: 136 µM
KB
  IC50: 96.6 µM
769-P
  IC50: 116 µM

## CCOC(=O)[C@H](Cc1ccccc1)NC(=O)c1cc2c3ccccc3n(CCCc3ccccc3)c2cn1
A-375
  IC50: > 200 µM
786-0
  IC50: > 200 µM
[1]
  IC50: > 200 µM
KB
  IC50: 89.2 µM
769-P
  IC50: 187 µM

## C[C@H](NC(=O)c1cc2c3ccccc3n(CCCc3ccccc3)c2cn1)C(=O)O
A-375
  IC50: 96.3 µM
786-0
  IC50: 78.3 µM
[1]
  IC50: 162 µM
KB
  IC50: 179 µM
769-P
  IC50: 120 µM

## CCCCn1c2ccccc2c2cc(C(=O)N[C@@H](CCSC)C(=O)OCC)ncc21
A-375
  IC50: > 200 µM
786-0
  IC50: > 200 µM
[1]
  IC50: > 200 µM
KB
  IC50: > 200 µM
769-P
  IC50: > 200 µM

## CCOC(=O)[C@H](Cc1ccccc1)NC(=O)c1cc2c3ccccc3n(CCCc3ccccc3)c2c[n+]1Cc1ccccc1
A-375
  IC50: 21.3 µM
786-0
  IC50: 23.4 µM
[1]
  IC50: 23.7 µM
KB
  IC50: 18.2 µM
769-P
  IC50: 22.9 µM
